According to patent publication US12156889B2, “Methods of administering mesenchymal stem cells activated by cytokines for enhancing immunosuppression” (Rutgers, The State University of New Jersey, priority 2012, dated 2024):

What was measured:
CD4+ T cell blasts = experiment: T cell blast proliferation in co-culture with MSCs (3H-thymidine incorporation); type: cell-based, mouse; conditions: for induction of immunosuppression by MSCs with recombinant cytokines: 20 ng/ml each, MSC + T cell blasts or MSC + A1.1 cells, 1:20; for T cell proliferation after MSC treatment with low-concentration cytokines: 2 ng/ml each, 12 hr, then 1:20 MSC:T cells
Protocol: FIG. 1. is a graph showing that immunosuppression by MSCs is induced by proinflammatory cytokines. Cloned MSCs were supplemented with the indicated combinations of recombinant cytokines (20 ng/ml each) for 8 hours, then co-cultured with CD4+ T cell blasts at a 1:20 ratio (MSC:T cells), and proliferation assessed after an additional 8 hours. Values represent means±SD of five wells from a representative of three experiments with different clones. * p<0.001.
(§1) FIGS. 9A, 9B, 9C, 9D, 9E, 9F and 9G. (FIG. 9A). Cloned MSCs were first treated with the indicated combinations of recombinant cytokines IFNγ, TNFα, IL-17A (2 ng/ml each) for 12 hr, then cocultured with CD4^+ T cell blasts at a 1:20 ratio (MSC:T cells), and proliferation was assessed by 3H-thymidine incorporation after an additional 12 hr. (FIG. 9B). The mRNA expression of IL-17 receptor family members in MSCs or Raw 264.7 (Macrophages) were examined by RT-PCR. NC: No RT. (FIG. 9C). Surface expression of IL-17RA was detected by immunofluoresence or flow cytometry in cloned MSCs. (FIGS. 9D and 9E). MSCs were first treated with IFNγ and TNFα with or without IL-17A (10 ng/ml), IFNγ and TNFα were supplemented at different cytokine concentrations, for 12 hr, and then cocultured with CD4^+ T cell blasts (FIG. 9D) or T cell hybridoma A1.1 cells (FIG. 9E) at a ratio of 1:20 for 12 hr. T cell proliferation was measured by 3H-Tdr incorporation. (FIG. 9F). MSCs were first treated with IFNγ and TNFα (2 ng/ml) with graded concentrations of IL-17A, for 12 hr, and then cocultured with T cell hybridoma A1.1 cells at a ratio of 1:10 for 12 hr. T cell proliferation was measured by 3H-thymidine incorporation. (FIG. 9G). MSCs were cocultured with fresh C57BL/6 splenocytes plus anti-CD3, anti-CD28, and antibodies against IL-17A, at a 1:20 or 1:40 ratio (MSCs:splenocytes), for 48 hr, and then cell proliferation was assessed by 3H-thymidine incorporation. Proliferation values represent means±SEM of three wells from a representative of three experiments.
T cell blasts were generated from CD4^+ T cells purified by negative selection with […] T cell subset isolation kits (R&D Systems). Cells (1×10^6 cells/ml) were activated by plastic-bound anti-CD3 and soluble anti-CD 28 for 48 hours, then cultured with IL-2 (200 U/ml) alone for 48 hours. All T cell cultures were maintained in RPMI-1640 medium supplemented with 10% heat-inactivated FBS, 2 mM glutamine, 100 U/ml penicillin, 100 μ·g/ml streptomycin, and […] (complete medium).
Since most reported studies of immunosuppression by MSCs are based on their effects on T cell proliferation and cytokine production, the effect of MSCs was first examined on the IL-2-driven proliferation of T cell blasts. Fresh CD4^+ T cell blasts were generated from splenocytes by activation with anti-CD3 followed by expansion with IL-2 for several days (Devadas, et al. (2006) Immunity 25:237-247; Radvanyi, et al. (1996) Cell Immunol. 170:260-273). T cell blasts were added at a 1:20 ratio (MSC:T cells) along with IL-2 (200 U/ml). Cell proliferation was assessed by ^3H-Tdr incorporation after 8 hours. […] MSCs also had no effect on the proliferation of T hybridoma A1.1 cells. These T cells blasts and T hybridoma cells, however, produce no cytokines unless reactivated through the TCR (Fotedar, et al. (1985) J. Immunol. 135(5):3028-33). Thus, in the absence of T cell cytokines, MSCs were unable to suppress T cell proliferation.
The effect of IFNγ was then tested directly by adding isolated recombinant IFNγ (20 ng/ml) instead of activated splenocyte supernatant to the mixed co-cultures of MSC+ T cell blasts or MSC+A1.1 cells. […] Therefore, induction of the immunosuppressive function of MSCs by anti-CD3-activated splenocyte supernatant may be due to IFNγ acting in concert with either TNFα; IL-1α; or IL-1β on the MSCs. […]

splenocytes = experiment: Anti-CD3-activated splenocyte proliferation in co-culture with MSCs; type: cell-based, mouse; conditions: for effect on immunosuppression by MSCs: indomethacin 10 μM, anti-IL-10 20 μg/ml, anti-TGFβ 20 μg/ml, 1-MT 1 mM; for splenocyte proliferation in MSC co-culture with iNOS inhibitor: MSCs + splenocytes + anti-CD3
Protocol: as §1, with “(FIG. 9A).” left out
To examine the possibility that cytokines induce the immunosuppressive capacity of MSCs, these culture conditions were reproduced by combining MSCs and fresh splenocytes at graded ratios in the presence of anti-CD3. […] The immunosuppressive capacity of MSC clones generated from different mouse strains was also examined.
To identify the mechanism through which immunosuppression by cytokine-exposed MSCs is effected, the response of anti-CD3-activated splenocytes co-cultured with MSCs (1:20, MSC:splenocytes) in a […] system was examined in various configurations.
Nitric oxide (NO) at high concentrations is known to inhibit T cell responses. It diffuses quickly from its source, but the concentration of the active form drops off within about 100 μm.
Proliferation assay—To assay T cell proliferation, 0.5 μCi of 3H-thymidine was added to each well of 96-well plates 6 hr before termination of the cultures by freezing. Plates were then thawed, cells were harvested, and incorporated 3H-Tdr was assessed with a Wallac Microbeta scintillation counter (Perkin-Elmer, Waltham, MA).

F1 (C57BL/6xC3H) mice = experiment: Graft-versus-host disease (GvHD) model
Protocol: Recipient mice (C57BL/6xC3H, F1) were lethally irradiated and injected i.v. with C57BL/6 bone marrow cells plus spleenocytes. On days 3 and 7 after bone marrow transplantation, recipients were administered with the indicated MSCs. For some wild-type MSC groups, L-NMMA, anti-IFNγ or a 3-antibody cocktail against TNFα, IL-1α, and IL-1β, (3 Abs) were injected i.p. Survival was monitored daily for 12 weeks.
GvHD Induction and Modulation by MSCs. C57BL/6×C3H F1 mice at 8-weeks old were lethally irradiated (13 Gy) and after 24 hours were infused by tail vein injection with nucleated bone marrow cells (5×10^6) and splenocytes (5×10^6) isolated from C57BL/6 parent mice. On days 3 and 7 following bone marrow transplantation, the recipients were administrated with 0.5×10^6 MSCs derived from C57BL/6 wild-type, IFNγ R1^−/−, or iNOS^−/− mice via the tail vein. Some wild-type MSC groups were also injected i.p. with the iNOS inhibitor, NG-monomethyl L-arginine (L-NMMA, 500 μg/mouse), anti-IFNγ (400 μg/mouse), or a cocktail of three antibodies against TNFα, IL-1α and IL-1β (200 μg each/mouse) daily for 7 days starting immediately after the first MSC administration. As negative controls, the F1 mice were injected with F1 bone marrow cells. Mice were observed daily for GvHD signs (wasting, ruffled hair, and hunched back) and euthanized upon becoming moribund, thus marking survival time. […]

[1] = test system: peripheral blood mononuclear cell; experiment: Peripheral blood mononuclear cell proliferation with human MSCs; type: cell-based; conditions: side-by-side comparison mouse and human MSCs
Protocol: In the present study, with T cell activation or when exogenous inflammatory cytokines are added, the T cells first enter cell cycle arrest and then die within 24 hours. It was also observed that this apoptosis was dependent on NO, since T cell apoptosis was not observed when iNOS inhibitors were used. Apoptosis was also absent when iNOS^−/− or IFNγ R1^−/− MSCs were used. Therefore, NO-induced cell cycle arrest and apoptosis of T cells are part of the mechanism of immunosuppression mediated by inflammatory cytokine-activated MSCs. Differences between species in inflammatory cytokine-induced expression of iNOS has been noted in macrophages (Schneemann & Schoedon. 2002) Nat. Immunol. 3(2):102). […] Thus, the roles of IDO and NO in the inhibition of T cell proliferation by MSCs from mouse and human were analyzed in a side-by-side comparison.

iNOS = iNOS mRNA in MSCs by real-time PCR; type: cell-based, mouse; conditions: 20 ng/ml each
Protocol: Real-Time PCR. RNA was isolated from cell pellets using an RNEASY Mini Kit. First-strand cDNA synthesis was performed using SENSISCRIPT RT Kit with random hexamer primers (all kits from Qiagen, Valencia, Calif.). mRNA of the genes of interest were quantified by real-time PCR (MX-4000 from Stratagene, La Jolla, Calif.) using SYBR Green Master Mix (Applied Biosystems, Foster City, Calif.). Total amount of mRNA was normalized to endogenous β-actin mRNA. Primers sequences for iNOS were: forward, 5′-CAGCTGGGCTGTACAAACCTT-3′ (SEQ ID NO:1); reverse, 5′-CATTGGAAGTGAAGCGTTTCG-3′ (SEQ ID NO:2). Other primers were from the RT2 PROFILER™ PCR Array Mouse Chemokines & Receptors kit (Superarray, Frederick, Md.).
Accordingly, it was contemplated that MSCs could upregulate their expression of iNOS and produce NO after exposure to these cytokines. […] […] At 12 hours post-stimulation, the level of iNOS mRNA was more than 7 times greater than β actin message, indicative of extremely high expression.

GM-CSF: Granulocyte-macrophage colony-stimulating factor
induction of immunosuppression by MSCs with recombinant cytokines (CD4+ T cell blasts): no effect

COc1ccc2c(c1)c(CC(=O)O)c(C)n2C(=O)c1ccc(Cl)cc1 [indomethacin, Indomethacin]
effect on immunosuppression by MSCs (splenocytes): no effect

CNC(=N)NCCC[C@H](N)C(=O)O [L-NMMA, N G-monomethyl-L-arginine]
splenocyte proliferation in MSC co-culture with iNOS inhibitor (splenocytes): completely restored
effect on immunosuppression by mouse MSCs (splenocytes; side-by-side comparison mouse and human MSCs): completely reversed
effect on protection by MSC (histology) (F1 (C57BL/6xC3H) mice; 14 days after bone marrow transplantation): almost completely reversed
effect on MSC-mediated protection from GvHD (survival) (F1 (C57BL/6xC3H) mice; i.p. daily for 7 days after wild-type MSC infusion): significant reversal

Cn1cc(CC(N)C(=O)O)c2ccccc21 (racemic) [1-MT, 1-methyl-DL-tryptophan]
effect on inhibition of peripheral blood mononuclear cell proliferation by human MSCs [1]: reversed
effect on immunosuppression by MSCs (splenocytes): no effect

COC(=O)[C@@H](N)CCCNC(=N)N[N+](=O)[O-] [L-NAME]
splenocyte proliferation in MSC co-culture with iNOS inhibitor (splenocytes): same effect

B1: IL-6: Interleukin-6 (protein, UniProt P08505 25-211, looked up)
Interleukin-6: FPTSQVRRGDFTEDTTPNRPVYTTSQVGGLITHVLWEIVEMRKELCNGNSDCMNNDDALAENNLKLPEIQRNDGCYQTGYNQEICLLKISSGLLEYHSYLEYMKNNLKDNKKDKARVLQRDTETLIHIFNQEVKDLHKIVLPTPISNALLTDKLESQKEWLRTKTIQFILKSLEEFLKVTLRSTRQT
induction of immunosuppression by MSCs with recombinant cytokines (CD4+ T cell blasts): no effect

B2: IFNγ: recombinant mouse interferon-gamma (protein)
chain: HGTVIESLESLNNYFNSSGIDVEEKSLFLDIWRNWQKDGDMKILQSQIISFYLRLFEVLKDNQAISNNISVIESHLITTFFSNSKAKKDAFMSIAKFEVNNPQVQRQAFNELIRVVHQLLPESSLRKRKRSRC
iNOS mRNA upregulation in MSCs by recombinant cytokines (iNOS): ineffective
T cell proliferation after MSC treatment with low-concentration cytokines (CD4+ T cell blasts): cannot induce immunosuppression
induction of immunosuppression by MSCs with recombinant cytokines (CD4+ T cell blasts): did not induce immunosuppression

B3: TNFα: recombinant mouse tumor necrosis factor-alpha (protein)
chain: LRSSSQNSSDKPVAHVVANHQVEEQLEWLSQRANALLANGMDLKDNQLVVPADGLYLVYSQVLFKGQGCPDYVLLTHTVSRFAISYQEKVNLLSAVKSPCPKDTPEGAELKPWYEPIYLGGVFQLEKGDQLSAEVNLPKYLDFAESGQVYFGVIAL
iNOS mRNA upregulation in MSCs by recombinant cytokines (iNOS): ineffective
T cell proliferation after MSC treatment with low-concentration cytokines (CD4+ T cell blasts): cannot induce immunosuppression

B4: IFNβ: type I IFN, printed as IFNα or β (protein, UniProt P01575 22-182, looked up)
Interferon beta: INYKQLQLQERTNIRKCQELLEQLNGKINLTYRADFKIPMEMTEKMQKSYTAFAIQEMLQNVFLVFRNNFSSTGWNETIVVRLLDELHQQTVFLKTVLEEKQEERLTWEMSSTALHLKSYYWRVQRYLKLMKYNSYAWMVVRAEIFRNFLIIRRLTRNFQN
MSC-mediated immunosuppression in MSC+splenocyte+anti-CD3 system (splenocytes): strikingly inhibited
